Assays:
[1] = target: T1, human sputum elastase (HSE) (Homo sapiens, UniProt P08246); assay: Protease inhibition assay (in vitro), human sputum elastase; assay type: biochemical; conditions: substrate methoxysuccinyl-(Ala)2-Pro-Val-p-nitroanilide, 30 min, room temperature, pH 7.5
T1 construct: HSE was obtained from Elastin Products Company Inc., Mo., U.S.A; purchased Elastin Products Company Inc; host or cells: human sputum (from the enzyme's name)
T1 sequence (P08246 30-267): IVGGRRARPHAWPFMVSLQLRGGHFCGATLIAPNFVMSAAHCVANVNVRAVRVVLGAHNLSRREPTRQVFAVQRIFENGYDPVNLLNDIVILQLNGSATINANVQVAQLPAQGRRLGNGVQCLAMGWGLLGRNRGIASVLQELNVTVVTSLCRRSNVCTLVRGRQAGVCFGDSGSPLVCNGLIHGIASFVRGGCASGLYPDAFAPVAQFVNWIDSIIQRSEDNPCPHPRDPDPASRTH
Experimental: (§1) A buffer used throughout the assay was 0.1M HEPES (4-(2-hydroxyethyl)-1-piperazineethanesulfonic acid) containing 0.5M NaCl, pH 7.5. Twenty-five microliters of 2 mM methoxysuccinyl-(Ala)2 -Pro-Val-p-nitroanilide (100 mM of dimethyl sulfoxide solution were diluted in the buffer) and 50 μl of sample (10 μl of sample in organic solvent was diluted 5-fold in the buffer) were mixed in wells of 96 well-microliter plate. An absorbance of the mixture in wavelength at 415 nm was measured by a microplate reader (Corona Electric Co., Ibaraki, Japan). After the measurement, 25 μl of 6 μg/ml human sputum elastase (HSE) was added and the mixture was allowed to stand for 30 minutes at room temperature. Then, the absorbance at 415 nm was measured. Percent inhibition by drug was determined by 100×(1-"r" inhibitor present/"r" inhibitor absent), where "r" is absorbance after 30 minutes incubation minus absorbance before enzyme addition. Effect of inhibitors against porcine pancreas elastase (Type IV, 5 μg/ml final) was assayed similarly using N-succinyl-(Ala)3 -p-nitroanilide. HSE was obtained from Elastin Products Company Inc., Mo., U.S.A. All other substrates and protease were purchased from Sigma Chemicals Co.

[2] = target: T2, porcine pancreas elastase (Type IV) (Sus scrofa, UniProt P00772); assay: Protease inhibition assay (in vitro), porcine pancreas elastase; assay type: biochemical; conditions: substrate N-succinyl-(Ala)3-p-nitroanilide, enzyme 5 μg/ml final; read-out: IC50 Porcine pancreas elastase
T2 construct: purchased Sigma Chemicals Co; host or cells: porcine pancreas (from the enzyme's name)
Experimental: as §1

T2 sequence (P00772 27-266): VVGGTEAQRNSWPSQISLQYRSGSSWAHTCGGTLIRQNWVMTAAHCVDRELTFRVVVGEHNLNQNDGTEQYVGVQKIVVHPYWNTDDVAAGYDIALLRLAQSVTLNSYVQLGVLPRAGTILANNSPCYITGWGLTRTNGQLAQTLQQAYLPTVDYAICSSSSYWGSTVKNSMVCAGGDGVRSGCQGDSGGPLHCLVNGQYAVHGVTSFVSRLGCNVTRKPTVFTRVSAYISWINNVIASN

IC50 [1] [µM] | IC50 [2] [µM] | Structure (SMILES)
8 | 310 | CC(C)C(NC(=O)[C@@H]1CCCN1C(=O)[C@@H](NC(=O)c1ccc(C(=O)N[C@@H](CCC(=O)OCc2ccccc2)C(=O)OCc2ccccc2)cc1)C(C)C)C(=O)C(F)(F)F (mixture of isomers) [Example 10, 3(RS)-[[4-[[1(S),3-bis(Benzyloxycarbonyl)propyl]aminocarbonyl]phenylcarbonyl]-L-valyl-L-prolyl]amino-1,1,1-trifluoro-4-methyl-2-oxopentane]
1.1 | 3.4 | CC(C)C(NC(=O)[C@@H]1CCCN1C(=O)[C@@H](NC(=O)c1ccc(C(=O)N[C@@H](CCC(=O)O)C(=O)O)cc1)C(C)C)C(=O)C(F)(F)F (mixture of isomers) [Example 17, 3(RS)-[[4-[(1(S),3-Dicarboxypropyl)aminocarbonyl]-phenylcarbonyl]-L-valyl-L-prolyl]amino-1,1,1-trifluoro-4-methyl-2-oxopentane]
0.61 | 3.8 | CC(C)C(NC(=O)[C@@H]1CCCN1C(=O)[C@@H](NC(=O)c1ccc(C(=O)NCc2ccc(N)cc2)cc1)C(C)C)C(=O)C(F)(F)F (mixture of isomers) [Example 18, 3(RS)-[[4-[(4-aminobenzyl)aminocarbonyl]phenylcarbonyl]-L-valyl-L-prolyl]amino-1,1,1-trifluoro-4-methyl-2-oxopentane]
0.68 | 4.9 | CC(C)C(NC(=O)[C@@H]1CCCN1C(=O)[C@@H](NC(=O)Nc1ccc(C(=O)NCC(=O)OCc2ccccc2)cc1)C(C)C)C(=O)C(F)(F)F (mixture of isomers) [Example 22, 3(RS)-[[4-(Benzyloxycarbonylmethylaminocarbonyl)phenylaminocarbonyl]-L-valyl-L-prolyl]amino-1,1,1-trifluoro-2-oxo-4-methylpentane]
1.4 | 3.8 | CC(C)C(NC(=O)[C@@H]1CCCN1C(=O)[C@@H](NC(=O)Nc1ccc(C(=O)NCC(=O)N(C)C)cc1)C(C)C)C(=O)C(F)(F)F (mixture of isomers) [Example 24, 3(RS)-[[4-(Dimethylaminocarbonylmethylaminocarbonyl)phenylaminocarbonyl]-L-valyl-L-prolyl]amino-1,1,1-trifluoro-2-oxo-4-methylpentane]

Second part, the compound before the results:

Structure (SMILES) | IC50 [1] [µM] | IC50 [2] [µM]
CC(C)C(NC(=O)[C@@H]1CCCN1C(=O)[C@@H](NC(=O)c1ccc(C(=O)NCC(=O)OCc2ccccc2)cc1)C(C)C)C(=O)C(F)(F)F (mixture of isomers) [Example 1, 3(RS)-[[4-[(benzyloxycarbonyl)methylaminocarbonyl]-phenylcarbonyl]-L-valyl-L-prolyl]amino-1,1,1-trifluoro-4-methyl-2-oxopentane] | 0.45 | 4.4
CC(C)C(NC(=O)[C@@H]1CCCN1C(=O)[C@@H](NC(=O)c1ccc(C(=O)NCc2ccc(Cl)cc2)cc1)C(C)C)C(=O)C(F)(F)F (mixture of isomers) [Example 5, 3(RS)-[[4-[(4-Chlorobenzyl)aminocarbonyl]-phenylcarbonyl]-L-valyl-L-prolyl]amino-1,1,1-trifluoro-4-methyl-2-oxopentane] | 0.3 | 5.1
CC(C)C(NC(=O)[C@@H]1CCCN1C(=O)[C@@H](NC(=O)c1ccc(C(=O)NCc2ccc([N+](=O)[O-])cc2)cc1)C(C)C)C(=O)C(F)(F)F (mixture of isomers) [Example 6, 3(RS)-[[4-[(4-Nitrobenzyl)aminocarbonyl]phenylcarbonyl]-L-valyl-L-prolyl]amino-1,1,1-trifluoro-4-methyl-2-oxopentane] | 0.43 | 6.9
CC(C)C(NC(=O)[C@@H]1CCCN1C(=O)[C@@H](NC(=O)c1ccc(C(=O)Nc2ccc(Cl)cc2)cc1)C(C)C)C(=O)C(F)(F)F (mixture of isomers) [Example 7, 3(RS)-[[4-[(4-Chlorophenyl)aminocarbonyl]phenylcarbonyl]-L-valyl-L-prolyl]amino-1,1,1-trifluoro-4-methyl-2-oxopentane] | 0.32 | 3.8

From patent US5296591A, “Trifluoromethylketone derivatives, processes for preparation thereof and use thereof” (Fujisawa Pharmaceutical Co., Ltd., priority 1990, dated 1994)
